From publication PMC12224672, “Advancing the development of TRIP13 inhibitors: A high-throughput screening approach” (SLAS discovery : advancing life sciences R & D, 2025)

Molecular target: T1, TRIP13 (Homo sapiens, UniProt Q15645)
T1 construct: full length, 1-432 aa, N-GST-tagged
T1 sequence (Q15645 1-432): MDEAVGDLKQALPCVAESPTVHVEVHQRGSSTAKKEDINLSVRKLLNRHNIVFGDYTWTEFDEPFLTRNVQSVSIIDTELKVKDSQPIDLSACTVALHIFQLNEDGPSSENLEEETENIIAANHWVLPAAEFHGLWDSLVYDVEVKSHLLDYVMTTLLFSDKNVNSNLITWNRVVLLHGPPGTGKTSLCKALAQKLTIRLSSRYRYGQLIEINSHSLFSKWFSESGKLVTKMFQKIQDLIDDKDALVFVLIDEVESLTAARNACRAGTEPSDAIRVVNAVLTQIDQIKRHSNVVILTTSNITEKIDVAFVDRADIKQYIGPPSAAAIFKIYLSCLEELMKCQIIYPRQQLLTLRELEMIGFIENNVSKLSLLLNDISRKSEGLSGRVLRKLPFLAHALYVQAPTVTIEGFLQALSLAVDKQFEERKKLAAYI
Experiment: ADP-Glo ATPase dose-response ([…] TRIP13, […] ATP) with ADP counter-screen; also CETSA in HeLa cells
Type: biochemical

## COc1cc2c(Oc3ccc4[nH]c(C)cc4c3F)ccnc2cc1OCC1(N)CC1 [anlotinib]
  IC50: 5.5 ± 1 µM
